Data reported in patent publication US11447482B1, “Imidazopyridine and oxazolopyridine derivatives and analogs thereof, methods of preparation thereof, methods of HIF-2A pathway inhibition, and induction of ferroptosis” (KUDA Therapeutics, Inc., priority 2019, dated 2022).

Tests used:
GPX4 = test: Western blot of treated 786-0 cells: GPX4; assay type: cell-based, human; settings: higher concentrations of compound, FIG. 4 Part D
Protocol: (§1) Western blots were performed to determine the effects of the compounds on levels of HIF-2α and other relevant proteins. 786-0 (pVHL deficient clear cell kidney cancer cells) were purchased from ATCC were plated at 1×10E5 cells/well in 2 ml DMEM with 10% FBS/well in 6-well tissue culture plates. Cells were allowed to adhere overnight in a humidified incubator at 37° C. with 5% CO2, after which the appropriate concentrations of compounds in DMSO were added. DMSO concentrations were kept constant in all wells. After 24 hour's exposure to the compounds, cells were lysed and subjected to western blotting according to standard protocols (Polek, Talpaz et al. 2003). Antibodies for HIF-2α and Glyceraldehyde 3-Phosphate Dehydrogenase (GAPDH) were purchased from Cell Signaling Technology (Danvers, Mass.), whereas antibodies to iron responsive element binding protein 2 (IRP2) and Glutathione Peroxidase 4 (GPX4) were from Santa Cruz Biotechnology (Dallas, Tex.) and R&D Systems, Inc (Minneapolis, Minn.). Representative data in FIG. 3 show a dose-dependent effect of compounds in decreasing HIF-2α. Compounds also impact cellular iron sensing given by increased IRP2, which taken together indicate that cells sense decreased amounts of available iron. Representative data shown in FIG. 5 Part C show a dose dependent effect of the compounds on GPX4, which may indicate decreased resistance to ferroptosis.

IRP2 = test: Western blot of treated 786-0 cells: IRP2; assay type: cell-based, human
Protocol: as §1

## COc1ccc(-c2nnc(Nc3nc4c(OC)nccc4[nH]3)o2)cc1OC [KD025HCl, N-(4-Methoxy-1H-imidazo[4,5-c]pyridin-2-yl)-5-(3,4-dimethoxyphenyl)-1,3,4-oxadiazol-2-amine]
GPX4
  GPX4 protein (western blot): decrease
IRP2; 786-0 CCRCC cells, 24 hours
  IRP2 protein relative to GAPDH (western blot): increases
IRP2; 786-0 cells, higher concentrations of KD025HCl, FIG. 4 Part D
  IRP2 protein (western blot) at higher concentrations: decrease
